Assay results as given in patent US20240417687A1, “THYMIC CELLS AND METHODS OF MAKING” (Thymmune Therapeutics, Inc., priority 2021, published 2024).

Experiments:
Assay type in all cases: cell-based, human
iPSCs = assay: Optimizing 3D differentiation of iPSCs to definitive endoderm (Experiments 21, 22, 23)
Procedure: In this experiment, the effect of adding PI-103 to Experiment 21/22 Medium B was tested. The effect of transitioning to 2D culture at the AFE stage was also tested. Differentiation of iPSCs into DE requires proper timing for introducing small molecules and growth factors. On Day 1-2, Experiment 21/22 Media A comprising DMEM-F12 and factors/small molecules namely Activin A (100 ng/mL), CHIR99021 2 μM, ITS (1:1000), KSR (0.05%), Pen strep (100×), PI-103 (25 nM) and NEAA (100×) was added. On day 3-5, Experiment 21/22 Media B comprising DMEM-F12 and factors/small molecules namely Activin A (100 ng/mL), LDN193189 (200 nM), PI-103 (25 nM), Insulin-Transferrin-Selenium (ITS-G) (1:1000), KSR (0.05%), Pen strep (100×) and NEAA (100×) was added. In Experiment 22, PI-103 (25 nM) was excluded. The effect of transitioning from 3D to 2D culture at VPE stage was tested. The impact of CHIR99021 addition to Experiment 23 Medium B was tested. Differentiation of iPSCs into DE requires proper timing for introducing small molecules and growth factors. On day 1-2, cells were cultured in Experiment 23 Media A comprising DMEM-F12 and small molecules/factors namely Activin A (100 ng/mL), CHIR99021 2 μM, ITS (1:1000), KSR (0.05%), Pen strep (100×), PI-103 (25 nM), and NEAA (100×). On day 3-4, Experiment 23 Media B containing DMEM-F12 and small molecules/factors namely Activin A (100 ng/mL), CHIRR9901 (2 μM), LDN193189 (200 nM), PI-103 (25 nM), Insulin-Transferrin-Selenium (ITS-G) (1:1000), KSR (0.05%), Pen strep (100×), and NEAA (100×). On day 5, Experiment 23 Media B containing DMEM-F12 and small molecules/factors namely Activin A (100 ng/mL), LDN193189 (200 nM), PI-103 (25 nM), Insulin-Transferrin-Selenium (ITS-G) (1:1000), KSR (0.05%), Pen strep (100×), NEAA (100×) was added. Experiment 21 and Experiment 23 described in Example 11 were designed to identify optimal conditions for 3D differentiation to DE. […] Sox17/FoxA2 double positive were higher in Experiment 23, whereas there were more Sox17/FoxA2 negative cells in Experiment 21 and Experiment 22.

TEP populations = assay: Oct4 and Nanog expression in TEP populations treated with PluriSIn-1
Procedure: On days 19-22, cells were cultured in TEC media. On day19, equal amount of freshly made TEC media (500 μl) was replaced gently without disturbing the aggregates. TEC media was prepared to include Basal Media: DMEM-F12, FGF10 (50 ng/ml), IL-22 (20 ng/ml), FGF7/KGF (50 ng/ml), RANKL/TRANCE (50 ng/ml), BMP4 (50 ng/ml), FGF8b (50 ng/ml), CHIRR99 (2 μM), Ascorbic Acid (10 μM), Insulin-Transferrin-Selenium (ITS-G) (1:1000), KSR (0.0025%), Pen strep (1:200), B27 (without VIT A) (1:200), Glutamax (1:100), BME (1:100), N2(1:100), NEAA (1:400), Glutamax (100×), and BME (100×). On day 20, equal amount of freshly prepared TEC media (500 ul) along with Plurisin #1(20 μM) was added (Groups-Untreated and Treated). On day21, equal amount of freshly made TEC media (500 ul) was replaced gently without disturbing the aggregates. On day22, the cells were treated with Accutase and were frozen using Hypothermosol-FRS Media. The cells were split into the following groups for experimentation. Group 37FT1 (8.85M Treated and 9.5M untreated groups) was thawed in 3D and maintained in TEC media (Y27-10 uM on day1) for 6 days. On Day 6, cells were treated with 20 μM Plurisin #1 (24 hours) and were transplanted on day7 into 4 animals. Group 37FT2 (8.85M per plate) was thawed in 3D and maintained in TEC media (Y27-10 uM on day1) for 6 days. […]

TEPs = assay: Extended culture of TEPs with TEP medium supplemented with growth factors (Experiments 29, 30); settings: TEP medium supplemented with FGF7, FGF10 and RANKL together, Experiment 29 and 30
Procedure: For this differentiation step, VPE cells were cultured in thymic cell media e.g. TEP media or TEC media. On days 13-18, media was replaced for Experiment 29 TEP media containing Basal Media: DMEM-F12, FGF10 (50 ng/ml), BMP4 (50 ng/ml), FGF8b (50 ng/ml), CHIRR99 (2 μM), Ascorbic Acid (10 μM), Insulin-Transferrin-Selenium (ITS-G) (1:1000), KSR (0.0025%), Pen strep (1:200), B27 (without VIT A) (1:200), Glutamax (1:100), BME (1:100), N2(1:100), and NEAA (1:400). On day 13, equal amount of freshly made TEP media (500 ul) was added gently without disturbing the aggregates. On day 14-18, 50% of supernatant was removed and freshly prepared TEP media (500 ul) was added per well. On days 19-22, media was replaced with TEC media containing Basal Media: DMEM-F12, FGF10 (50 ng/ml), FGF7/KGF (50 ng/ml), RANKL/TRANCE (50 ng/ml), BMP4 (50 ng/ml), FGF8b (50 ng/ml), CHIRR99 (2 μM), Ascorbic Acid (10 μM), Insulin-Transferrin-Selenium (ITS-G) (1:1000), KSR (0.0025%), Pen strep (1:200), B27 (without VIT A) (1:200), Glutamax (1:100), BME (1:100), N2(1:100), NEAA (1:400), Glutamax (100×), and BME (100×). On days 20-22, 50% of supernatant was removed and freshly prepared TEC media (500 ul) was added per well. On day 22, Experiment 29B was reseeded as single cells in suspension (3D) and on Geltrex coated plates (2D). Remaining cells were frozen. Frozen Experiment 29B were thawed in suspension and maintained in TEC media.
For this differentiation step, VPE cells were cultured in thymic cell media e.g. TEP media or TEC media. […]
In experiments 16 through 23, the expression of FOXN1 and other markers expression by Day5 of TEP differentiation. […] In Exp 29-TEPs, FOXN1 expression was detected at week 1 of TEP stage. When TEPs were reseeded into 2D culture, no FOXN1 expression was detected after 1 week but FOXN1 was detected by week 2 in culture. In Exp29B-TEP2-3D, where single cell TEP were resuspended into 3D-aggregate culture, FOXN1 expression was detected already by 1 week and became even higher by second week.

[1] = test system: Spheroids induced to differentiate from iPSC state to TEP; assay: Effect of timing of BMP addition on developmental gene expression in spheroids differentiating from iPSC to TEP; settings: with or without BMP at early and late TEP stages
Text: Differentiation of DE cells to thymic cells can be promoted by adding factors known to be important for DE to thymic differentiation. An example is BMP which is known to be crucial for the development and maturation of thymic progenitor cells from the third pharyngeal pouch. The impact of the timing of addition of BMP was explored (FIG. 2). Spheroids were induced to differentiate from iPSC state to TEP and timing of addition of BMP was varied. At different stages (DE, AFE, VPE, early and late TEP) spheroids were collected and analyzed for biomarkers related to the different stages. We compared condition with or without BMP at early and late TEP stages.

For `Cc1c[nH]c(-c2cnc(NCCNc3ccc(C#N)cn3)nc2-c2ccc(Cl)cc2Cl)n1` [CHIRR99, CHIR99021], the differentiation (iPSCs; 2 μM added to Experiment 23 Medium B, day 3-4) was “enhance differentiation” and the “differentiation efficiency to DE” value (iPSCs; Experiment 23 with Wnt activator versus Experiment 21 and 22 without) was “increased differentiation efficiency to DE”.

For `Oc1cccc(-c2nc(N3CCOCC3)c3oc4ncccc4c3n2)c1` [PI-103], the DE differentiation (iPSCs; PI-103 (25 nM) added to Experiment 21/22 Medium B, day 3-5, excluded in Experiment 22) was “enhanced DE differentiation”.

`O=C(NNc1ccccc1)c1ccncc1` [PluriSIn-1] was tested, and the “Oct4 and Nanog expression” value (TEP populations; one 24-hour pulse before freezing and one 24-hr pulse after thawing, compared to one pulse) was “lower Oct4 and Nanog expression” and the “Oct4 and Nanog expression” value (TEP populations; one dose alone, different iPSC cell line) was “sufficient to reduce Oct4 and Nanog expression”.

B1: RANKL: growth factor important for late maturation of TEPs to TECs (protein, UniProt O14788 140-317, looked up)
Tumor necrosis factor ligand …: IRAEKAMVDGSWLDLAKRSKLEAQPFAHLTINATDIPSGSHKVSLSSWYHDRGWAKISNMTFSNGKLIVNQDGFYYLYANICFRHHETSGDLATEYLQLMVYVTKTSIKIPSSHTLMKGGSTKYWSGNSEFHFYSINVGGFFKLRSGEEISIEVSNPSLLDPDQDATYFGAFKVRDID
In the case of B1, the “duration of TEP culture while maintaining the expression of FOXN1” value (“duration” below) (TEPs) is reported as “extended beyond 5 days and up to 2 weeks”.

B2: FGF7: growth factor important for late maturation of TEPs to TECs (protein, UniProt P21781 32-194, looked up)
Fibroblast growth factor 7: CNDMTPEQMATNVNCSSPERHTRSYDYMEGGDIRVRRLFCRTQWYLRIDKRGKVKGTQEMKNNYNIMEIRTVAVGIVAIKGVESEFYLAMNKEGKLYAKKECNEDCNFKELILENHYNTYASAKWTHNGGEMFVALNQKGIPVRGKKTKKEQKTAHFLPMAIT
With B2 the “duration” value (TEPs) was “extended beyond 5 days and up to 2 weeks”.

B3: BMP: growth factor BMP4, crucial for development and maturation of thymic progenitor cells (protein, UniProt P12644 293-408, looked up)
Bone morphogenetic protein 4: SPKHHSQRARKKNKNCRRHSLYVDFSDVGWNDWIVAPPGYQAFYCHGDCPFPLADHLNSTNHAIVQTLVNSVNSSIPKACCVPTELSAISMLYLDEYDKVVLKNYQEMVVEGCGCR
modifications: Bone morphogenetic protein 4
notes: growth factor BMP4, crucial for development and maturation of thymic progenitor cells
With B3 the “PAX1 and PAX9 expression” value [1] was “suppressed” and the “TBX1 and HOXA3 expression” value [1] was “upregulated”.

B4: FGF10: growth factor important for late maturation of TEPs to TECs (protein, UniProt O15520 38-208, looked up)
Fibroblast growth factor 10: QALGQDMVSPEATNSSSSSFSSPSSAGRHVRSYNHLQGDVRWRKLFSFTKYFLKIEKNGKVSGTKKENCPYSILEITSVEIGVVAVKAINSNYYLAMNKKGKLYGSKEFNNDCKLKERIEENGYNTYASFNWQHNGRQMYVALNGKGAPRRGQKTRRKNTSAHFLPMVVHS
B4 was tested, and the “duration” value (TEPs) was “extended beyond 5 days and up to 2 weeks”.
